“And” between values parts separate entries of the source, which are not always exact repeats. Equal entries are not always repeated. Where two headings read alike, the source gives them in different places.
What was measured:
[1] = tested on: SKES cells (Ewing Sarcoma cell line); assay: CCK-8 tetrazolium tumor cell growth inhibition, SKES; format: cell-based; details: Homo sapiens
Procedure: A modified tetrazolium salt assay using the CCK-8 kit (Sigma-Aldrich; St Louis, Mo.) was used to measure the inhibition of human tumor cell growth. Tumor cells (5000-7500 per well) were added to 96 well plates and allowed to attach for 4-5 hours. Compounds were serially diluted and added in triplicate at a concentration of 0.02 to 5 μM. DMSO was included as a vehicle control. Cells were incubated in the presence of compound for 3 days. After incubation CCK-8 reagent was added to each well and incubated for 2-4 hours. Viable cells were quantitated spectrophotometrically at a wavelength of 450 nm. Percent viability of each sample was calculated from the A450 values as follows: % viability=(A450 nm sample/A450 nm DMSO-treated cells×100). […] IC50 activities of particular compounds were determined using SKES cells (Ewing Sarcoma cell line).

[2] = Pharmacokinetics after IV and oral administration; format: in vivo; details: BALB/c mice or Sprague Dawley rats
Procedure: Certain pharmacokinetics parameters were determined for certain compounds in vivo for intravenous and oral administration. Briefly, compounds were formulated and administered using IV bolus, continuous IV infusion or oral administration. Blood was collected at multiple time points over 24 hours and processed into plasma. Plasma was analyses for parent using LC/MS/MS. Certain parameters for certain compounds were obtained in duplicate.

[3] = rat liver microsome, no cofactor, 60 min
[4] = mouse liver microsome, no cofactor, 60 min
[5] = dog liver microsome, no cofactor, 60 min
[6] = human liver microsome, no cofactor, 60 min
[7] = 72 h, SKES cells, 3 days with compound, CCK-8 (TABLE 3)
[8] = 20 mg/kg po, labrasol/tetraglycol 9:1
[9] = 20 mg/kg po, labrasol:tetraglycol:water 72:8:20
[10] = plasma, iv, 5 mg/kg, 5 mg/kg IV, captisol
[11] = plasma, po, 20 mg/kg, 20 mg/kg po, labrasol/tetraglycol 9:1
[12] = plasma, po, 20 mg/kg, 20 mg/kg po, labrasol:tetraglycol:water 72:8:20

| SMILES | IC50 [1, 7] [µM] | IC50 ([1]; SKES, ES, EWS-FLI1 Type 2) [µM] | other results |
| --- | --- | --- | --- |
| CNc1ccc(C(=O)CC2(O)C(=O)Nc3c(Cl)ccc(Cl)c32)cc1 (single isomer, unassigned) [Cmpd 5, 4,7-dichloro-3-hydroxy-3-[2-[4-(methylamino)phenyl]-2-oxoethyl]-1H-indol-2-one] |  |  | AUC ([2]; 5 mg/kg IV, captisol): 2324 h * (ng/mL) and 3207 h * (ng/mL); AUC [2, 8]: 5192 h * (ng/mL) and 4939 h * (ng/mL); Tmax [2, 8]: 0.5 h; % F [2, 9]: 39%; AUC [2, 9]: 4354 h * (ng/mL) and 4081 h * (ng/mL); Tmax [2, 9]: 0.5 h; Cmax [2, 10]: 13 µg/mL; half-life [2, 10]: 1.7 h; Tmax ([2]; plasma, iv, 5 mg/kg, 5 mg/kg IV, captisol, read-out: Tmax): 0.033 h; Cmax [2, 11]: 2.18 µg/mL; bioavailability [2, 11]: 56%; half-life [2, 11]: 3.1 h; Tmax ([2]; plasma, po, 20 mg/kg, 20 mg/kg po, labrasol/tetraglycol 9:1, read-out: Tmax): 1 h; Cmax [2, 12]: 1.57 µg/mL; bioavailability [2, 12]: 47%; half-life [2, 12]: 2.8 h; Tmax ([2]; plasma, po, 20 mg/kg, 20 mg/kg po, labrasol:tetraglycol:water 72:8:20, read-out: Tmax): 1 h |
| O=C(CC1(O)C(=O)Nc2c(Cl)ccc(Cl)c21)c1ccc(N2CC2)cc1 (racemic) [Cmpd 8, 3-(2-(4-(Aziridin-1-yl)phenyl)-2-oxoethyl)-4,7-dichloro-3-hydroxyindolin-2-one] | < 5 | < 5 |  |
| O=C(CC1(O)C(=O)Nc2c(Cl)ccc(Cl)c21)c1ccc(C2CC2)cc1 (single isomer, unassigned) [Cmpd 13, 4,7-Dichloro-3-(2-(4-cyclopropylphenyl)-2-oxoethyl)-3-hydroxyindolin-2-one] | > 5 | > 5 | Remaining (NCF = 60 min) [3]: 97.0%; Remaining (NCF = 60 min) [4]: 85.6%; Remaining (NCF = 60 min) [5]: 98.4%; Remaining (NCF = 60 min) [6]: 105.1% |
| COC12CCC(C(=O)CC3(O)C(=O)Nc4c(Cl)ccc(Cl)c43)(CC1)CC2 (racemic) [Cmpd 24, 4,7-Dichloro-3-hydroxy-3-(2-(4-methoxybicyclo[2.2.2]octan-1-yl)-2-oxoethyl)indolin-2-one] | > 5 | > 5 |  |
| COc1ccc(C(=O)CC2(O)C(=O)Nc3c(Cl)ccc(Cl)c32)cc1 (single isomer, unassigned) [Cmpd 3, 4,7-Dichloro-3-hydroxy-3-[2-(4-methoxyphenyl-2-oxoethyl)]-1,3-dihydroindol-2-one] |  |  | Remaining (NCF = 60 min) [3]: 92.6%; Remaining (NCF = 60 min) [4]: 97.5%; Remaining (NCF = 60 min) [5]: 100.1%; Remaining (NCF = 60 min) [6]: 112.6% |
| COC1CCC(C(=O)CC2(O)C(=O)Nc3c(Cl)ccc(Cl)c32)CC1 (racemic) [Cmpd 23, 4,7-Dichloro-3-hydroxy-3-(2-(4-methoxycyclohexyl)-2-oxoethyl)indolin-2-one] | > 5 | > 5 |  |
| O=C(CC1(O)C(=O)Nc2c(Cl)ccc(Cl)c21)c1ccc(N2CCOCC2)cc1 (racemic) [Cmpd 29, 4,7-dichloro-3-hydroxy-3-(2-(4-moprholinophenyl)-2-oxoethyl)indolin-2-one] | > 5 | > 5 |  |
| NS(=O)(=O)c1ccc(C(=O)CC2(O)C(=O)Nc3c(Cl)ccc(Cl)c32)cc1 (racemic) [Cmpd 20, 4-(2-(4,7-Dichloro-3-hydroxy-2-oxoindolin-3-yl)acetyl)benzenesulfonamide] | > 5 | > 5 |  |
| O=C(CC1(O)C(=O)Nc2c(Cl)ccc(Cl)c21)c1ccc(C2CC2)cc1F (single isomer, unassigned) [Cmpd 38, 4,7-Dichloro-3-(2-(4-cyclopropyl-2-fluorophenyl)-2-oxoethyl)-3-hydroxyindolin-2-one] |  |  | Remaining (NCF = 60 min) [6]: 99.5% |
| O=C(CC1(O)C(=O)Nc2c(Cl)ccc(Cl)c21)c1ccc(-n2cccn2)cc1 (racemic) [Cmpd 16, 3-(2-(4-(1H-Pyrazol-1-yl)phenyl)-2-oxoethyl)-4,7-dichloro-3-hydroxyindolin-2-one] | > 5 | > 5 |  |
| CN(C)C12CCC(C(=O)CC3(O)C(=O)Nc4c(Cl)ccc(Cl)c43)(CC1)CC2 (racemic) [Cmpd 25, 4,7-Dichloro-3-(2-(4-(dimethylamino)bicyclo[2.2.2]octan-1-yl)-2-oxoethyl)-3-hydroxyindolin-2-one] | > 5 | > 5 |  |
| O=C(CC1(O)C(=O)Nc2c(Cl)ccc(Cl)c21)c1ccc(C2CC2)c(F)c1 (single isomer, unassigned) [Cmpd 36, 4,7-Dichloro-3-(2-(4-cyclopropyl-3-fluorophenyl)-2-oxoethyl)-3-hydroxyindolin-2-one] |  |  | Remaining (NCF = 60 min) [6]: 104.0% |
| CS(=O)(=O)c1ccc(C(=O)CC2(O)C(=O)Nc3c(Cl)ccc(Cl)c32)cc1 (racemic) [Cmpd 4, 4,7-Dichloro-3-hydroxy-3-(2-(4-(methylsulfonyl)phenyl)-2-oxoethyl)indolin-2-one] | > 5 | > 5 |  |

The next lines start with results.

| IC50 [1, 7] [µM] | IC50 ([1]; SKES, ES, EWS-FLI1 Type 2) [µM] | SMILES | other results |
| --- | --- | --- | --- |
| > 5 | > 5 | O=C(CC1(O)C(=O)Nc2c(Cl)ccc(Cl)c21)c1ccc(N2CCCC2)c(F)c1 (racemic) [Cmpd 21, 4,7-Dichloro-3-(2-(3-fluoro-4-(pyrrolidin-1-yl)phenyl)-2-oxoethyl)-3-hydroxyindolin-2-one] |  |
| > 5 | > 5 | O=C(CC1(O)C(=O)Nc2c(Cl)ccc(Cl)c21)c1ccc(F)c(F)c1 (racemic) [Cmpd 35, 4,7-dichloro-3-(2-(3,4-difluorophenyl)-2-oxoethyl)-3-hydroxyindolin-2-one] |  |
| > 5 | > 5 | O=C(CC1(O)C(=O)Nc2c(Cl)ccc(Cl)c21)c1cccnc1 (racemic) [Cmpd 31, 4,7-dichloro-3-hydroxy-3-(2-oxo-2-(pyridin-3-yl)ethyl)indolin-2-one] |  |
| > 5 | > 5 | O=C(CC1(O)C(=O)Nc2c(Cl)ccc(Cl)c21)c1ccccn1 (racemic) [Cmpd 32, 4,7-dichloro-3-hydroxy-3-(2-oxo-2-(pyridin-2-yl)ethyl)indolin-2-one] |  |
| > 5 | > 5 | O=C(CC1(O)C(=O)Nc2c(Cl)ccc(Cl)c21)c1ccncc1 (racemic) [Cmpd 30, 4,7-dichloro-3-hydroxy-3-(2-oxo-2-(pyridin-4-yl)ethyl)indolin-2-one] |  |
| > 5 | > 5 | NC(=O)c1ccc(C(=O)CC2(O)C(=O)Nc3c(Cl)ccc(Cl)c32)cc1 (racemic) [Cmpd 33, 4-(2-(4,7-dichloro-3-hydroxy-2-oxoindolin-3-yl)acetyl)benzamide] |  |
| > 5 | > 5 | O=C(CC1(O)C(=O)Nc2c(Cl)ccc(Cl)c21)c1ccc(N2CCCC2)cc1 (stereo not drawn) [Cmpd 17, 4,7-Dichloro-3-hydroxy-3-(2-oxo-2-(4-(pyrrolidin-1-yl)phenyl)ethyl)indolin-2-one] |  |
| < 5 | < 5 | O=C(CC1(O)C(=O)Nc2c(Cl)ccc(Cl)c21)c1ccc(C2CC2)c(F)c1 (racemic) [Cmpd 26, 4,7-Dichloro-3-(2-(4-cyclopropyl-3-fluorophenyl)-2-oxoethyl)-3-hydroxyindolin-2-one] |  |
| < 5 | < 5 | O=C(CC1(O)C(=O)Nc2c(Cl)ccc(Cl)c21)c1ccc(N2CCC2)cc1 (racemic) [Cmpd 22, 3-(2-(4-(Azetidin-1-yl)phenyl)-2-oxoethyl)-4,7-dichloro-3-hydroxyindolin-2-one] |  |
| > 5 | > 5 | CC(C)c1ccc(C(=O)CC2(O)C(=O)Nc3c(Cl)ccc(Cl)c32)cc1 (racemic) [Cmpd 9, 4,7-Dichloro-3-hydroxy-3-(2-(4-isopropylphenyl)-2-oxoethyl)indolin-2-one] |  |
| > 5 | > 5 | O=C(CC1(O)C(=O)Nc2c(Cl)ccc(Cl)c21)c1ccc(O)cc1 (racemic) [Cmpd 34, 4,7-dichloro-3-hydroxy-3-(2-(4-hydroxyphenyl)-2-oxoethyl)indolin-2-one] |  |
| < 5 | < 5 | O=C(CC1(O)C(=O)Nc2c(Cl)ccc(Cl)c21)c1ccc(C2CC2)cc1F (racemic) [Cmpd 27, 4,7-Dichloro-3-(2-(4-cyclopropyl-2-fluorophenyl)-2-oxoethyl)-3-hydroxyindolin-2-one] |  |

— US9895352B2, “Indolinone compounds and uses thereof” (Oncternal Therapeutics, Inc., priority 2014, dated 2018)
